Data as given in patent US20170320837A1, “METHOD FOR TREATING INFLAMMATORY DISORDERS” (Synta Pharmaceuticals Corp., priority 2006, published 2017).
“Also recorded” adds a separate entry of the source.

Assays:
glucocorticoid receptor [1] = assay: Glucocorticoid receptor levels in PBMCs of rats after four days of intravenous dosing, immunoblot; assay type: in vivo, Sprague-Dawley (SD) rats; conditions: for expression of glucocorticoid receptor (GR) in isolated PBMC compared with vehicle: daily intravenously for four days, 17-DMAG 6 mg/kg, Paclitaxel 5 mg/kg, Compound 264 80 mg/kg, Compound 226 50 mg/kg
Description: The test compounds were administered daily intravenously via tail vein for four days. […] All rats were sacrificed at the study day 5. About 1-2 mL of blood samples were collected per animal. The blood samples were then pulled together as a group for PBMC isolation.

GR (human recombinant) = biological target: T1, GR (human recombinant) (Homo sapiens, UniProt P04150); assay: GR competitive assay, fluorescence polarization with Fluormone GS1; assay type: binding; conditions: tested up to 10 uM
T1 construct: purchased Invitrogen P2816
T1 sequence (P04150 1-777): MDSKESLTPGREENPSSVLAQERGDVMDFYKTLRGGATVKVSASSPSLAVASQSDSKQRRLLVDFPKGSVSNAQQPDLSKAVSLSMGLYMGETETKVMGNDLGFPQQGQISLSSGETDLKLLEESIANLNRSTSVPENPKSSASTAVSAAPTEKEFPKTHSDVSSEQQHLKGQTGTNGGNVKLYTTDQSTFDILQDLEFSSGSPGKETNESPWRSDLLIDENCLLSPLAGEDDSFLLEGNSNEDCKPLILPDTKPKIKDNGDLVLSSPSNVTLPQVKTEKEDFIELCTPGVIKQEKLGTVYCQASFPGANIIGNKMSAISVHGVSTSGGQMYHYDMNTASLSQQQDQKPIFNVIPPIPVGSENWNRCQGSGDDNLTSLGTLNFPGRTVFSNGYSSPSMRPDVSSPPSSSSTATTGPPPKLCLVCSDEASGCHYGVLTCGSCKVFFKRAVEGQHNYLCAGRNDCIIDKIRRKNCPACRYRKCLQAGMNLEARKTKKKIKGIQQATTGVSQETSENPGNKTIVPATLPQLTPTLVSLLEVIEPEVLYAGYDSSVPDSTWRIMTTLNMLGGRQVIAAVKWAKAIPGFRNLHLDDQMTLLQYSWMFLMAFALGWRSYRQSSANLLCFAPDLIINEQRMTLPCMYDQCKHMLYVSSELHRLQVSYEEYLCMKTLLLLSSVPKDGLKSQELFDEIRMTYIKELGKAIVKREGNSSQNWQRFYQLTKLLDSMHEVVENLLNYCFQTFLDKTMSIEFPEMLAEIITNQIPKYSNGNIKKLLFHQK
Description: To determine whether the compounds of the invention bind directly to the glucocorticoid receptor, GR competitive assay was performed using a kit from Invitrogen (Cat #P2816). GR (human recombinant) was added to a fluorescent glucocorticoid (Fluormone™ GS1) ligand with a test compound at various concentrations (a serial dilution of the test compound was done on a 96-well plate) and incubated for 2-4 hours in the dark. […] The shift in polarization value in the presence of a test compound was used to determine relative affinity of test compounds for glucocorticoid receptors. The buffer plus Fluormone™ GS1 and glucocorticoid receptor in the absent of s test compound was used as negative control presenting 0% competition. […] The IC50 was calculated based on the inhibition rate of binding activity of the testing compound.

glucocorticoid receptor [2] = assay: Glucocorticoid receptor levels in human PBMCs, renal cells and cancer cell lines, immunoblot (Example 115); assay type: cell-based
Description: Normal human renal proximal tubule epithelial cells and tumor cell lines of MV-4-11, Kasumi-1, and Hela were obtained from Cambrex Bioproducts and American Type Culture Collection, respectively. Cells were cultured with 10% fetal bovine serum/DMEM.
The whole blood samples from healthy human volunteer were collected and the PBMCs were isolated immediately as described in Example 116. Isolated human PBMCs were cultured in 10% fetal bovine serum/DMEM.
Human PBMCs, kasumi-1, My-4-11, Hela, and human renal proximal tubule epithelial cells were treated with DMSO (control), Compound 226, Compound 287, 17-DMAG at concentrations of 0, 5, 25, or 100 nM (in DMSO) for 16 hours. The cells were then collected and rinsed in ice-cold PBS and stored in liquid nitrogen until further analysis.
(§1) PBMC, renal and tumor cell pellets were prepared in Western lysis buffer (10 mmol/L HEPES, 42 mmol/L KCl, 5 mmol/L MgCl2, 0.1 mmol/L EDTA, 0.1. mmol/LEGTA, 1 mmol/L DTT, 1% Triton X-100, freshly supplemented with 1× protease inhibitor cocktail from Pierce, Rockford, Ill.). Lysate protein concentrations were quantified by bicinchoninic acid assay (Pierce) and normalized. Equal amounts of protein were loaded onto 10% NuPAGE Bis-Tris Gels (Invitrogen) and subsequently transferred onto polyvinylidene difluoride membranes. The membranes were blocked in 5% milk in TBST. Primary antibody of glucocorticoid receptor from Santa Cruz Biotechnology, Inc. was added and incubated at room temperature for 1 hour with shaking. The blots were washed extensively in TBST before secondary antibodies were added for overnight incubation at 4° C. with gentle shaking. The blots were again washed extensively and developed with SuperSignal West Femto substrate (Pierce).

human PBMCs = assay: Production of inflammatory cytokines in stimulated human PBMCs; assay type: cell-based; conditions: IFN-γ primed PBMCs stimulated with LPS or SAC, 16-18 hrs
Description: Human PBMC were isolated using Ficoll 400 and diatrizoate sodium (density 1.077 g/ml) solution and purified with RosetteSep (StemCell Technologies). The PBMCs were primed with human IFN-γ (800 U/ml, Pierce Biotechnology #R-IFNG-50), seeded at 0.5×10^6/100 μL/well in 96-well U-bottom plate with culture medium (RPMI 1640, 10% FBS, 1% Pen/Strep), and incubated in 37° C. for overnight. […] About 180 ul/well of supernatant was collected and measured using ELISA kit or Bio-plex (Bio-Rad) to determine the levels of cytokine production. The cell survival was determined using Cell Counting Kit-8 (Dojindo Molecular Technologies, Inc.). […]

glucocorticoid receptors = biological target: T2, glucocorticoid receptors (Homo sapiens, UniProt P04150); assay: Competitive binding assay with tritium labeled dexamethason in Hela S3 cells (legend of FIG. 3)
T2 construct: endogenous in cells; host or cells: HeLa S3
T2 sequence (P04150 1-777): T1 sequence (P04150 1-777)

glucocorticoid receptor [3] = assay: Glucocorticoid receptor levels in rat PBMCs, immunoblot; assay type: cell-based; conditions: rat PBMCs, 0, 1, 5, 25, or 100 nM, 16 hours
Description: (§2) The whole blood samples from healthy human volunteer and male SD rat were collected and the PBMCs were isolated immediately as follows. 5 ml of whole blood was diluted with an equal volume of sterile 1× PBS. The diluted blood was overlayed carefully into a sterile centrifuge tube without disturbing the bottom layer that containing 5 ml of Ficoll-paque plus density gradient solution. The layered blood was centrifuged at 1500×g for 30 minutes at room temperature. The middle thin layer containing PBMCs was carefully removed, transferred to another sterile centrifuge tube, and washed twice with PBS to remove […]. Isolated rat and human PBMCs were cultured in 10% fetal bovine serum/DMEM.
(§3) The rat and human PBMCs were treated with DMSO (control), Compound 226, Compound 287, or 17-DMAG at concentrations of 0, 1, 5, 25, or 100 nM (in DMSO) for 16 hours. The cells were then collected and rinsed in ice-cold PBS and stored in liquid nitrogen until further analysis.
as §1, with “PBMC” for “PBMC, renal and tumor cell pellets”, “0.1 mmol/L EGTA,” for “0.1. mmol/LEGTA,”, “glucocorticod” for “glucocorticoid”, “(Pierce). The immunoblot analysis was performed to measure the level of total GRs by Quantity One software from Bio-Rad.” for “(Pierce).”

glucocorticoid receptor [4] = assay: Glucocorticoid receptor levels in human PBMCs, immunoblot (Example 114); assay type: cell-based; conditions: human PBMCs, 0, 1, 5, 25, or 100 nM, 16 hours
Description: as §2, §3
as §1, with “PBMC” for “PBMC, renal and tumor cell pellets”, “0.1 mmol/L EGTA,” for “0.1. mmol/LEGTA,”, “glucocorticod” for “glucocorticoid”, “(Pierce). The immunoblot analysis was performed to measure the level of total GRs by Quantity One software from Bio-Rad.” for “(Pierce).”

CCCN(C)c1cc(-n2c(S)nnc2-c2cc(C(C)C)c(O)cc2O)ccc1OC [Compound 264]
expression of glucocorticoid receptor (GR) in isolated PBMC compared with vehicle (glucocorticoid receptor [1]): decreased
IC50 (GR (human recombinant)): > 10 µM

CC(C)c1cc(-c2nnc(O)n2-c2ccc3c(ccn3C)c2)c(O)cc1O [Compound 226, 3-(2,4-dihydroxy-5-isopropyl-phenyl)-4-(1-methyl-indol-5-yl)-5-hydroxy-[1,2,4]triazole]
suppression of glucocorticoid receptors, cancer cells compared with normal cells (glucocorticoid receptor [2]): more pronounced in cancer cell than in normal cells
expression of glucocorticoid receptors (glucocorticoid receptor [2]; HeLa cells, 0, 5, 25, or 100 nM, 16 hrs): dose dependent decrease
expression of glucocorticoid receptors (glucocorticoid receptor [2]; Kasumi-1 AML cancer cells, 0, 5, 25, or 100 nM, 16 hrs): dose dependent decrease
expression of glucocorticoid receptors (glucocorticoid receptor [2]; MV-4-11 AML cancer cells, 0, 5, 25, or 100 nM, 16 hrs): dose dependent decrease
expression of glucocorticoid receptors (glucocorticoid receptor [2]; cancer cells as well as normal PBMCs and renal cells): suppress the expression of glucocorticoid receptors
expression of glucocorticoid receptors (glucocorticoid receptor [2]; human PBMCs, 0, 5, 25, or 100 nM, 16 hrs): dose dependent decrease
expression of glucocorticoid receptors (glucocorticoid receptor [2]; human renal cells, 0, 5, 25, or 100 nM, 16 hrs): dose dependent decrease
size of the decrease of GR expression compared with the other treatments (glucocorticoid receptor [1]; 50 mg/kg daily intravenously for four days): most significant
expression of glucocorticoid receptor (GR) in isolated PBMC compared with vehicle (glucocorticoid receptor [1]): decreased
inhibition of the production of proinflammatory cytokines (human PBMCs): more broadly inhibits the production of proinflammatory cytokines than dexamethasone or 17-DMAG
displacement of tritium labeled dexamethason (glucocorticoid receptors): did not displace the tritium labeled dexamethason
expression of glucocorticoid receptors (glucocorticoid receptor [3]): dose dependent decrease; also recorded: decreased the expression of glucocorticoid receptor in a dose dependent manner
IC50 (GR (human recombinant)): > 10 µM
expression of glucocorticoid receptors (glucocorticoid receptor [4]): dose dependent decrease; also recorded: decreased the expression of glucocorticoid receptor in a dose dependent manner
